Measurements reported in patent US6303625A, “Triazolopyridines for the treatment of thrombosis disorders” (Ortho-McNeil Pharmaceutical, Inc., priority 1999, dated 2001).

Tests used:
[1] = test system: ADP-induced ex vivo platelet aggregation; assay: Ex vivo dog study: duration of >50% inhibition of ADP-induced ex vivo platelet aggregation; format: in vivo
Protocol: Adult mongrel dogs (8-13 kg) were anesthetized with sodium pentobarbital (35 mg/kg, i.v.) and artificially respired. Arterial blood pressure and heart rate were measured using a Millar catheter-tip pressure transducer inserted in a femoral artery. Another Millar transducer was placed in the left ventricle (LV) via a carotid artery to measure LV end diastolic pressure and indices of myocardial contractility. A lead II electrocardiogram was recorded from limb electrodes. Catheters were placed in a femoral artery and vein to sample blood and infuse drugs, respectively. Responses were continuously monitored using a Modular Instruments data acquisition system.
Arterial blood samples (5-9 ml) were withdrawn into tubes containing 3.8% sodium citrate to prepare platelet rich plasma (PRP) and to determine effects on coagulation parameters: prothrombin time (PT) and activated partial thromboplastin time (APTT). Separate blood samples (1.5 ml) were withdrawn in EDTA to determine hematocrit and cell counts (platelets, RBC's and white cells). Template bleeding times were obtained from the buccal surface using a symplate incision devise and Whatman filter paper.
Aggregation of PRP was performed using a BioData aggregometer. Aggregation of whole blood used a Chronolog impedance aggregometer. PT and APTT were determined on either a BioData or ACL 3000+ coagulation analyzer. Cells were counted with a Sysmex K-1000.
Compounds were solubilized in a small volume of dimethylformamide (DMF) and diluted with saline to a final concentration of 10% DMF. Compounds were administered by the intravenous route with a Harvard infusion pump. Doses was administered over a 15 min interval at a constant rate of 0.33 ml/min. Data were obtained after each dose and in 30 min intervals following the end of drug administration. Oral doses were administered as aqueous solutions via syringe.

gel-filtered platelets = assay: In vitro inhibition of thrombin-induced gel-filtered platelet aggregation; format: cell-based; settings: Homo sapiens; for inhibition at 50 µM: read-out: Platelet Aggregation % Inh. (50 μM)
Protocol: In Vitro Inhibition of Thrombin-Induced Gel-Filtered Platelet Aggression Assay
The percentage of platelet aggregation is calculated as an increase in light transmission of compound-treated platelet concentrate vs. control-treated platelet concentrate. Human blood was obtained from drug free, normal donors into tubes containing […] sodium citrate. Platelet rich plasma (PRP) was collected by centrifugation of whole blood at 200×g for 10 min at 25° C. The PRP (5 mL) was gel filtered through Sepharose 2B (bed volume 50 mL), and the platelet count was adjusted to 2×10^7 platelets per sample. The following constituents were added to a siliconized cuvette: concentrated platelet filtrate and Tyrode's buffer (0.14M NaCl, 0.0027M KCl, 0.012M NaHCO3,0.76 mM Na2 HPO4, 0.0055M glucose, 2 mg/mL BSA and 5.0 mM HEPES @ pH 7.4) in an amount equal to 350 μl, 50 μl of 20 mM calcium and 50 μl of the test compound. Aggregation was monitored in a BIODATA aggregometer for the 3 min following the addition of agonist (thrombin 50 μl of 1 unit/mL).

GPIIb/IIIa = GPIIb/IIIa (Homo sapiens, UniProt P05106+P08514); assay: In vitro solid phase purified glycoprotein IIb/IIIa binding assay (fibrinogen binding); settings: for inhibition at 50 µM: read-out: Fibrinogen Binding % Inh. (50 μM)
Protocol: In Vito Solid Phase Purified Glycoprotein IIB/IIA Binding Assay
The plate was covered and incubated overnight at 4° C. The GPIIb/IIa solution was discarded and 150 μl of 5% BSA was added and incubated at RT for 1-3 h. The plate was washed extensively with modified Tyrodes buffer. Biotinylated fibrinogen (25 μl/well) at 2×final concentration was added to the wells that contain the test compounds (25 μl/well). The plate was covered and incubated at RT for 2-4 h. Twenty minutes prior to incubation completion, one drop of Reagent A (Vecta Stain ABC Horse Radish Peroxidase kit, Vector Laboratories, Inc.) and one drop Reagent B were added with mixing to 5 mL modified Tyrodes buffer mix and let stand. The ligand solution was discarded and the plate washed (5×200 μl/well) with modified Tyrodes buffer. Vecta Stain HRP-Biotin-Avidin reagent (50 μl/well, as prepared above) was added and incubated at RT for 15 min. The Vecta Stain solution was discarded and the wells washed (5×200 μl/well) with modified Tyrodes buffer. Developing buffer (10 mL of 50 mM citrate/phosphate buffer @ pH 5.3, 6 mg o-phenylenediamine, 6 μl 30% H2 O2; 50 μl/well) was added and incubated at RT for 3-5 min, and then 2N H2 SO4 (50 μl/well) was added. The absorbance was read at 490 nm.

Sequence of GPIIb/IIIa (P08514 32-887 limits assumed): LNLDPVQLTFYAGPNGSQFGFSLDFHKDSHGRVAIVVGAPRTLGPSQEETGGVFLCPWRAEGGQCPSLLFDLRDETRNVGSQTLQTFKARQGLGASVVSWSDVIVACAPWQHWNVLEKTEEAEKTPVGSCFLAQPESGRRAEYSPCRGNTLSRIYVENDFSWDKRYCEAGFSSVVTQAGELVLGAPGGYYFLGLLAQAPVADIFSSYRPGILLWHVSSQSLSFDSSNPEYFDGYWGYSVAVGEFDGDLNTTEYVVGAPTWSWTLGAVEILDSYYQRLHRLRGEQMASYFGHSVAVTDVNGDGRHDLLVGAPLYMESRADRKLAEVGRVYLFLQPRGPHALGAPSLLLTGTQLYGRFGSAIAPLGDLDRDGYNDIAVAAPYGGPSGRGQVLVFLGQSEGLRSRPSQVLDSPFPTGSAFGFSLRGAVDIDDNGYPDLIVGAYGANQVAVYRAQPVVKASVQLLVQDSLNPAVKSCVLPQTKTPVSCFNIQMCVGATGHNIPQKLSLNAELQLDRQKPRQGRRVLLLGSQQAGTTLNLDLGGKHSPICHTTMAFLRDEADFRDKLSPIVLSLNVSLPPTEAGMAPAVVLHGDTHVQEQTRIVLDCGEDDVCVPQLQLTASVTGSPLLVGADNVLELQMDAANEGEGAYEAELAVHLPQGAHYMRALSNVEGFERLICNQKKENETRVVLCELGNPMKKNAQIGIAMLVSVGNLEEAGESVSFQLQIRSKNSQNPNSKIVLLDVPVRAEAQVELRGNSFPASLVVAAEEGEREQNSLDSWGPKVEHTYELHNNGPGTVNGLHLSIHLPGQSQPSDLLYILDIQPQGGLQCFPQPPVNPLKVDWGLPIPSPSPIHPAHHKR
Sequence of GPIIb/IIIa (P08514 891-1039 limits assumed): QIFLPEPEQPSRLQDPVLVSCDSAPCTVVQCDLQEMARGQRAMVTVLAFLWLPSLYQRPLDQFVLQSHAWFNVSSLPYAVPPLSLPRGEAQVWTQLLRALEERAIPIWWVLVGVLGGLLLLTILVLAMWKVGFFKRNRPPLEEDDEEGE
Sequence of GPIIb/IIIa (P05106 27-788): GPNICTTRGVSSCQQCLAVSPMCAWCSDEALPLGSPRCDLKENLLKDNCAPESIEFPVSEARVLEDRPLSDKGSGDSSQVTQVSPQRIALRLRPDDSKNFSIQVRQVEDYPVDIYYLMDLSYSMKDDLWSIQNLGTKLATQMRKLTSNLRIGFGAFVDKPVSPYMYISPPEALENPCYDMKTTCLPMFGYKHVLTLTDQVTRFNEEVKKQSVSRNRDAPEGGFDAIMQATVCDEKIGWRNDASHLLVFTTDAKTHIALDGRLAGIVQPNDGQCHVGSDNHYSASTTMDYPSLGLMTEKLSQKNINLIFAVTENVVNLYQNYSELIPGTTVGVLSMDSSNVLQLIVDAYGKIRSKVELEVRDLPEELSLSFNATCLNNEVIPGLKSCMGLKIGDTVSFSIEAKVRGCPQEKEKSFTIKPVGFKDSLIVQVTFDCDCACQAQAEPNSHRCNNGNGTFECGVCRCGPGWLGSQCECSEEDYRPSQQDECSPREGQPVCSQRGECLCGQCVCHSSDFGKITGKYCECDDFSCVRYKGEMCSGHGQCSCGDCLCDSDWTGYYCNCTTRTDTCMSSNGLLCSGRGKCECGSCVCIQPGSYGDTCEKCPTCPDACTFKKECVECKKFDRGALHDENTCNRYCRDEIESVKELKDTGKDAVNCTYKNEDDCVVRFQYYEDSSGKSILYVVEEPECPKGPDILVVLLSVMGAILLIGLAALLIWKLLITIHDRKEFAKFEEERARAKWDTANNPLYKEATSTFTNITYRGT

IC50 (gel-filtered platelets) [µM]	IC50 (GPIIb/IIIa) [µM]	inhibition at 50 µM (GPIIb/IIIa) [%]	Compound	Intravenous Dosing Duration (of >50% inhibition of ADP-induced ex vivo platelet aggregation) ([1]; 0.3 mpk) [min]	Oral Dosing Duration (of >50% inhibition of ADP-induced ex vivo platelet aggregation) ([1]; 3 mpk) [min]	inhibition at 50 µM (gel-filtered platelets) [%]	Intravenous Dosing Duration (of >50% inhibition of ADP-induced ex vivo platelet aggregation) ([1]; 0.1 mpk) [min]	Oral Dosing Duration (of >50% inhibition of ADP-induced ex vivo platelet aggregation) ([1]; 1 mpk) [min]
0.016	0.0004	100	O=C(O)C[C@H](NC(=O)C1CCCn2c(CCC3CCNCC3)nnc21)c1cccnc1 (stereo partly drawn) [Compound 1, β-[[[5,6,7,8-Tetrahydro-3-[2-(4-piperidinyl)ethyl]-1,2,4-triazolo[4,3-a]pyridin-8-yl]carbonyl]amino]-βS-3-pyridinepropanoic acid]	180	360	100		
16.4	0.0447	100	CCN(CC)C(=O)COC(=O)C[C@H](NC(=O)C1CCCn2c(CCC3CCNCC3)nnc21)c1cccnc1 (stereo partly drawn) [Compound 4, β-[[[5,6,7,8-Tetrahydro-3-[2-(4-piperidinyl)ethyl]-1,2,4-triazolo[4,3-a]pyridin-8-yl]carbonyl]amino]-βS-3-pyridinepropanoic acid 2-(Diethylamino)-2-oxoethyl ester]			100		< 30
0.023	0.0001	100	O=C(N[C@@H](CNC(=O)C1CCCn2c(/C=C/C3CCNCC3)nnc21)C(=O)O)OCc1ccccc1 (stereo partly drawn) [Compound 5, β-[[[5,6,7,8-Tetrahydro-3-[2-(4-pipieridinyl)E-ethylene]-1,2,4-triazolo[4,3-a]pyridin-8-yl]carbonyl]amino]-αS-benzyloxycarbonylamino-propanoic acid]			100	120	360
0.18	0.00094	100	O=C(O)CC(NC(=O)C1CCCn2c(/C=C/C3CCNCC3)nnc21)c1ccncc1 (stereo not drawn) [Compound 10, β-[[[5,6,7,8-Tetrahydro-3-[2-(4-piperidinyl)E-ethylene]-1,2,4-triazolo[4,3-a]pyridin-8-yl]carbonyl]amino]-β-4-pyridinepropanoic acid]			100		
0.057	0.00044	100	O=C(O)C[C@H](NC(=O)C1CCCn2c(/C=C/C3CCNCC3)nnc21)c1cnc2ccccc2c1 (stereo partly drawn) [Compound 13, β-[[[5,6,7,8-Tetrahydro-3-[2-(4-piperidinyl)E-ethylene]-1,2,4-tiazolo[4,3-a]pyridin-8-yl]carbonyl]amino]-βS-3-quinolinylpropanoic acid]			100		
0.043	0.00051	100	O=C(NC[C@H](NS(=O)(=O)Cc1ccccc1)C(=O)O)C1CCCn2c(/C=C/C3CCNCC3)nnc21 (stereo partly drawn) [Compound 14, β-[[[5,6,7,8-Tetrahydro-3-[2-(4-piperidinyl)E-ethylene]-1,2,4-triazolo[4,3-a]pyridin-8-yl]carbonyl]amino]-αS-benzylsulfonylamino-propanoic acid]			100		
0.12	0.0014	100	O=C(Cc1cccnc1)N[C@@H](CNC(=O)C1CCCn2c(/C=C/C3CCNCC3)nnc21)C(=O)O (stereo partly drawn) [Compound 15, β-[[[5,6,7,8-Tetrahydro-3-[2-(4-piperidinyl)E-ethylene]-1,2,4-triazolo[4,3-a]pyridin-8-yl]carbonyl]amino]-αS-3-pyridylacetylamino-propanoicacid]			100		
0.6	0.0006	100	CC(C)COC(=O)N[C@@H](CNC(=O)C1CCCn2c(/C=C/C3CCNCC3)nnc21)C(=O)O (stereo partly drawn) [Compound 16, β-[[[5,6,7,8-Tetrahydro-3-[2-(4-piperidinyl)E-ethylene]-1,2,4-triazolo[4,3-a]pyridin-8-yl]carbonyl]amino]-αS-isobutyloxycarbonylamino-propanoic acid]			100		

The remaining lines, values behind:

Compound	IC50 (gel-filtered platelets) [µM]	IC50 (GPIIb/IIIa) [µM]	inhibition at 50 µM (GPIIb/IIIa) [%]	Intravenous Dosing Duration (of >50% inhibition of ADP-induced ex vivo platelet aggregation) ([1]; 0.3 mpk) [min]	Oral Dosing Duration (of >50% inhibition of ADP-induced ex vivo platelet aggregation) ([1]; 3 mpk) [min]	inhibition at 50 µM (gel-filtered platelets) [%]	Intravenous Dosing Duration (of >50% inhibition of ADP-induced ex vivo platelet aggregation) ([1]; 0.1 mpk) [min]	Oral Dosing Duration (of >50% inhibition of ADP-induced ex vivo platelet aggregation) ([1]; 1 mpk) [min]
O=C(O)CCNC(=O)C1CCCn2c(CCC3CCNCC3)nnc21 (stereo not drawn) [Compound 2, β-[[[5,6,7,8-Tetrahydro-3-[2-(4-piperidinyl)ethyl]-1,2,4-triazolo[4,3-a]pyridin-8-yl]carbonyl]amino]-β-propanoic acid]	1.3	0.0072	98			98		
O=C(N[C@@H](CNC(=O)C1CCCn2c(CCC3CCNCC3)nnc21)C(=O)O)OCc1ccccc1 (stereo partly drawn) [Compound 3, β-[[[5,6,7,8-Tetrahydro-3-[2-(4-piperidinyl)ethyl]-1,2,4-triazolo[4,3-a]pyridin-8-yl]carbonyl]amino]-αS-benzyloxycarbonylamino-propanoic acid]	0.068	0.00048	100			100	120	300
CCN(CC)C(=O)COC(=O)[C@H](CNC(=O)C1CCCn2c(CCC3CCNCC3)nnc21)NC(=O)OCc1ccccc1 (stereo partly drawn) [Compound 6, β-[[[5,6,7,8-Tetrahydro-3-[2-(4-piperidinyl)ethyl]-1,2,4-triazolo[4,3-a]pyridin-8-yl]carbonyl]amino]-αS-benzyloxycarbonylamino-propanoic acid 2-(Diethylamino)-2-oxoethyl ester]	1.9	0.0082	100			100		
O=C(O)CC(NC(=O)C1CCCn2c(CCC3CCNCC3)nnc21)c1ccsc1 (stereo not drawn) [Compound 7, β-[[[5,6,7,8-Tetrahydro-3-[2-(4-piperidinyl)ethyl]-1,2,4-triazolo[4,3-a]pyridin-8-yl]carbonyl]amino]-β-3-thiophenepropanoic acid]	0.35	0.00075	100			100		
O=C(NC(CNC(=O)C1CCCn2c(C(F)=CC3CCNCC3)nnc21)C(=O)O)OCc1ccccc1 (stereo not drawn) [Compound 9, β-[[[6,7,8-Tetrahydro-3-[2-(4-piperidinyl)Z-1-fluoroethylene]-1,2,4-triazolo[4,3-a]pyridin-8-yl]carbonyl]amino]-αS-benzyloxycarbonylamino-propanoic acid]	0.5	0.0017	100			100		
Cc1noc(C)c1S(=O)(=O)N[C@@H](CNC(=O)C1CCCn2c(/C=C/C3CCNCC3)nnc21)C(=O)O (stereo partly drawn) [Compound 11, β-[[[5,6,7,8-Tetrahydro-3-[2-(4-piperidinyl)E-ethylene]-1,2,4-triazolo[4,3-a]pyridin-8-yl]carbonyl]amino]-αS-4-(3,5-dimethylisoxazolyl)sulfonylamino-propanoic acid]	0.11	0.0011	100			100		
O=C(O)C[C@H](NC(=O)c1cccn2c(CCC3CCNCC3)nnc12)c1cccnc1 [Compound 17, β-[[[3-[2-(4-piperidinyl)ethyl]-1,2,4-triazolo[4,3-a]pyridin-8-yl]carbonyl]amino]-βS-3-pyridylpropanoic acid]	> 1	0.443	90					
